Reference: US20170129903A1, “COMPOUNDS COMPRISING 1,1a,2,5a-TETRAHYDROSPIRO[INDOLE-3,2a-PYRROLE]-2,5a-DIONE SYSTEM AS INHIBITORS P53-MDM2 PROTEIN-PROTEIN INTERACTION” (ADAMED SP. Z O.O., priority 2014, published 2017)

How the values were obtained:
[1] = molecular target: T1, p53-Mdm2 interaction (N-terminal domain of Mdm2 protein, amino acids 1-111) (Homo sapiens, UniProt Q00987); experiment: Fluorescence polarization (FP) binding assay of p53-Mdm2 interaction; settings: for Ki: FP assay, 130 nM Mdm2, FAM-labelled p53 peptide, Ki transformed from IC50 using Kenakin equation
T1 construct: N-terminal domain of Mdm2 protein (amino acids 1-111)
T1 sequence (Q00987 1-111): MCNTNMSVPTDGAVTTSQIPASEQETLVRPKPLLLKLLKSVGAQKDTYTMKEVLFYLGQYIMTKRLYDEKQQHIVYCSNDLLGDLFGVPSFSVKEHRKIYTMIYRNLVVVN
Method in brief: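 N-terminal Mdm2 (aa 1-111) at 130 nM preincubated 15 min with compound (5% DMSO) in PBS, 0.1% CHAPS, 5 mM DTT, then […] FAM-labelled p53 peptide added. Polarization read after 90 min at room temperature (ex 470/em 520 nm). IC50 converted to Ki by Kenakin equation.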

[2] = system: SJSA-1 osteosarcoma cell line; experiment: MTT cell viability assay; format: cell-based; settings: Homo sapiens, SJSA-1, 72 h, 72 h incubation, average of 2-5 experiments
Experimental: The effect of the invented p53-Mdm2 inhibitors on cell viability has been assessed using MTT assay. It is a colorimetric assay that measures conversion of tetrazolium ring of the soluble yellow dye (MTT) into insoluble purple formazan. This process is catalysed solely in mitochondrial dehydrogenases of living cells.
Cells were seeded on 96-well plates and then treated with successive dilutions of tested compounds. After 72 h incubation, MTT was added to the final concentration 0.5 mg/ml. The cells were further incubated for the next 4 h. Then the solution was drained and the remaining formazan crystals were dissolved in 100 μl DMSO. […] All the MTT experiments were independently repeated 2-5 times. Dose-dependent binding curves and IC50 values were calculated using GraphPad Prism 5.

Compound | Ki [1] [nM] | IC50 [2] [µM] | times more potent than the corresponding S/R (racemic) mixture ([1]; enantiopure S isomers vs racemic Compounds 71, 93 and 72, respectively)
COc1ccc(Cl)cc1N1C(=O)c2nn(-c3ccccc3OC)c(C(C)C)c2C12C(=O)Nc1cc(Cl)ccc12 (stereo not drawn) [Compound 30, 6-chloro-5′-(5-chloro-2-methoxyphenyl)-2′-(2-methoxyphenyl)-3′-(propan-2-yl)-1,2,5′,6′-tetrahydro-2′H-spiro[indole-3,4′-pyrrolo[3,4-c]pyrazole]-2,6′-dione] | 8.2 | 1.36 | –
COc1ccc(-n2nc3c(c2C(C)C)C2(C(=O)Nc4cc(Cl)ccc42)N(c2cc(Cl)ccc2C)C3=O)c(OC)n1 (stereo not drawn) [Compound 114, 6-chloro-5′-(5-chloro-2-methylphenyl)-2′-(2,6-dimethoxypyridin-3-yl)-3′-(propan-2-yl)-1,2,5′,6′-tetrahydro-2′H-spiro[indole-3,4′-pyrrolo[3,4-c]pyrazole]-2,6′-dione] | 3.3 | 0.29 | –
O=C1C(O)=C(c2ccccc2)C2(C(=O)Nc3cc(Cl)ccc32)N1c1cc(Cl)ccc1F (stereo not drawn) [Compound 45, 6-chloro-1′-(5-chloro-2-fluorophenyl)-4′-hydroxy-3′-phenyl-1,1′,2,5′-tetrahydrospiro[indole-3,2′-pyrrole]-2,5′-dione] | 36 | 29.9 | –
COc1ccccc1-n1nc2c(c1C1(C)CC1)C1(C(=O)Nc3cc(Cl)ccc31)N(c1cccc(Cl)c1)C2=O (stereo not drawn) [Compound 26, 6-chloro-5′-(3-chlorophenyl)-2′-(2-methoxyphenyl)-3′-(1-methylcyclopropyl)-1,2,5′,6′-tetrahydro-2′H-spiro[indole-3,4′-pyrrolo[3,4-c]pyrazole]-2,6′-dione] | 23 | 4.91 | –
Cc1ncc(Cl)cc1N1C(=O)c2n[nH]c(C(C)C)c2C12C(=O)Nc1cc(Cl)ccc12 (stereo not drawn) [Compound 84, 6-chloro-5′-(5-chloro-2-methylpyridin-3-yl)-3′-(propan-2-yl)-1,2,5′,6′-tetrahydro-2′H-spiro[indole-3,4′-pyrrolo[3,4-c]pyrazole]-2,6′-dione] | 152 | 46.1 | –
COc1ccccc1-n1nc2c(c1C(C)C)[C@@]1(C(=O)Nc3cc(Cl)ccc31)N(c1cc(Cl)ccc1C)C2=O [Compound 65, (3S)-6-chloro-5′-(5-chloro-2-methyl-phenyl)-2′-(2-methoxyphenyl)-3′-(propan-2-yl)-1,2,5′,6′-tetrahydro-2′H-spiro[indole-3,4′-pyrrolo[3,4-c]pyrazole]-2,6′-dione] | 1.9 | 0.22 | –
COc1ccc(-n2cc3c(c2C(C)C)[C@@]2(C(=O)Nc4cc(Cl)ccc42)N(c2cc(Cl)ccc2C)C3=O)c(OC)c1 [Compound 107, (3S)-6-chloro-2′-(5-chloro-2-methylphenyl)-5′-(2,4-dimethoxyphenyl)-6′-(propan-2-yl)-1,2,3′,5′-tetrahydro-2′H-spiro[indole-3,1′-pyrrolo[3,4-c]pyrrole]-2,3′-dione] | 1.9 | 0.06 | about 2 times
Cc1cccc(-n2nc3c(c2C(C)C)C2(C(=O)Nc4cc(Cl)ccc42)N(c2cc(Cl)ccc2C)C3=O)c1 (stereo not drawn) [Compound 69, 6-chloro-5′-(5-chloro-2-methylphenyl)-2′-(3-methylphenyl)-3′-(propan-2-yl)-1,2,5′,6′-tetrahydro-2′H-spiro[indole-3,4′-pyrrolo[3,4-c]pyrazole]-2,6′-dione] | 67 | 4.04 | –
Cc1ccc(Cl)cc1N1C(=O)c2n[nH]c(C(C)C)c2C12C(=O)Nc1cc(Cl)ccc12 (stereo not drawn) [Compound 23, 6-chloro-5′-(5-chloro-2-methylphenyl)-3′-(propan-2-yl)-1,2,5′,6′-tetrahydro-2′H-spiro[indole-3,4′-pyrrolo[3,4-c]pyrazole]-2,6′-dione] | 20 | 10.2 | –
O=C1C(O)=C(C2CCCCC2)C2(C(=O)Nc3cc(Cl)ccc32)N1c1cccc(Cl)c1 (stereo not drawn) [Compound 44, 6-chloro-1′-(3-chlorophenyl)-3′-cyclohexyl-4′-hydroxy-1,1′,2,5′-tetrahydrospiro[indole-3,2′-pyrrole]-2,5′-dione] | 281 | 18.1 | –
COC(=O)c1ccc(OC)c(-n2nc3c(c2C(C)C)C2(C(=O)Nc4cc(Cl)ccc42)N(c2cc(Cl)ccc2C)C3=O)c1 (stereo not drawn) [Compound 78, methyl 3-[6-chloro-5′-(5-chloro-2-methylphenyl)-2,6′-dioxo-3′-(propan-2-yl)-1,2,5′,6′-tetrahydro-2′H-spiro[indole-3,4′-pyrrolo[3,4-c]pyrazol]-2′-yl]-4-methoxybenzoate] | 3.4 | 0.36 | –
COC(=O)/C=C/COc1ccc(Cl)cc1N1C(=O)c2nn(-c3ccccc3OC)c(C(C)C)c2C12C(=O)Nc1cc(Cl)ccc12 (stereo not drawn) [Compound 62, methyl (2E)-4-{4-chloro-2-[6-chloro-2′-(2-methoxyphenyl)-2,6′-dioxo-3′-(propan-2-yl)-1,2,5′,6′-tetrahydro-2′H-spiro[indole-3,4′-pyrrolo[3,4-c]pyrazole]-5′-yl]phenoxy}but-2-enoate] | 11 | 2.23 | –
COc1ccccc1-n1nc2c(c1C(C)C)C1(C(=O)Nc3cc(Cl)ccc31)N(c1cc(Cl)ccc1OCCS(C)(=O)=O)C2=O (stereo not drawn) [Compound 73, 6-chloro-5′-[5-chloro-2-(2-methanesulfonylethoxy)phenyl]-2′-(2-methoxyphenyl)-3′-(propan-2-yl)-1,2,5′,6′-tetrahydro-2′H-spiro[indole-3,4′-pyrrolo [3,4-c]pyrazole]-2,6′-dione] | 42 | 11.4 | –

Continued by falling Ki [1], values first:

Ki [1] [nM] | IC50 [2] [µM] | times more potent than the corresponding S/R (racemic) mixture ([1]; enantiopure S isomers vs racemic Compounds 71, 93 and 72, respectively) | Compound
1460 | 32 | – | CC1(c2c3c(nn2CC2CCCN2)C(=O)N(c2cccc(Cl)c2)C32C(=O)Nc3cc(Cl)ccc32)CC1 (stereo not drawn) [Compound 28, 6-chloro-5′-(3-chlorophenyl)-3′-(1-methylcyclopropyl)-2′-(pyrrolidin-2-ylmethyl)-1,2,5′,6′-tetrahydro-2′H-spiro [indole-3,4′-pyrrolo[3,4-c]pyrazole]-2,6′-dione]
800 | 39.6 | – | CS(=O)(=O)OC1=C(c2ccccc2)C2(C(=O)Nc3cc(Cl)ccc32)N(c2cccc(Cl)c2)C1=O (stereo not drawn) [Compound 52, 6-chloro-1′-(3-chlorophenyl)-2,5′-dioxo-3′-phenyl-1,1′,2,5′-tetrahydrospiro[indole-3,2′-pyrrole]-4′-yl methanesulfonate]
86 | 13 | – | CCc1ccccc1-n1nc2c(c1CC)C1(C(=O)Nc3cc(Cl)ccc31)N(c1cc(Cl)ccc1C)C2=O (stereo not drawn) [Compound 85, 6-chloro-5′-(5-chloro-2-methylphenyl)-3′-ethyl-2′-(2-ethylphenyl)-1,2,5′,6′-tetrahydro-2′H-spiro[indole-3,4′-pyrrolo [3,4-c]pyrazole]-2,6′-dione]
64 | 22.3 | – | CC1(c2[nH]nc3c2C2(C(=O)Nc4cc(Cl)ccc42)N(c2cccc(Cl)c2)C3=O)CC1 (stereo not drawn) [Compound 19, 6-chloro-5′-(3-chlorophenyl)-3′-(1-methylcyclopropyl)-1,2,5′,6′-tetrahydro-2′H-spiro[indole-3,4′-pyrrolo[3,4-c]pyrazole]-2,6′-dione]
33 | 6.19 | – | COc1ccccc1-n1cc2c(c1C(C)C)C1(C(=O)Nc3cc(Cl)ccc31)N(c1cc(Cl)ccc1[N+](=O)[O-])C2=O (stereo not drawn) [Compound 90, 6-chloro-2′-(5-chloro-2-nitrophenyl)-5′-(2-methoxyphenyl)-6′-(propan-2-yl)-1,2,3′,5′-tetrahydro-2′H-spiro[indole-3,1′-pyrrolo [3,4-c]pyrrole]-2,3′-dione]
4.7 | 1.77 | – | COc1cc2[nH]c(=O)[nH]c2cc1-n1cc2c(c1C(C)C)C1(C(=O)Nc3cc(Cl)ccc31)N(c1cc(Cl)ccc1C)C2=O (stereo not drawn) [Compound 101, 6-chloro-2′-(5-chloro-2-methylphenyl)-5′-(6-methoxy-2-oxo-2,3-dihydro-1H-1,3-benzodiazol-5-yl)-6′-(propan-2-yl)-1,2,3′,5′-tetrahydro-2′H-spiro[indole-3,1′-pyrrolo[3,4-c]pyrrole]-2,3′-dione]
4 | 0.3 | – | COc1ccc(N)cc1-n1cc2c(c1C(C)C)C1(C(=O)Nc3cc(Cl)ccc31)N(c1cc(Cl)ccc1C)C2=O (stereo not drawn) [Compound 96, 5′-(5-amino-2-methoxyphenyl)-6-chloro-2′-(5-chloro-2-methylphenyl)-6′-(propan-2-yl)-1,2,3′,5′-tetrahydro-2′H-spiro [indole-3,1′-pyrrolo[3,4-c]pyrrole]-2,3′-dione]
3.5 | 1.21 | – | COc1ccc(C(=O)NCCO)cc1-n1cc2c(c1C(C)C)C1(C(=O)Nc3cc(Cl)ccc31)N(c1cc(Cl)ccc1C)C2=O (stereo not drawn) [Compound 100, 3-[6-chloro-2′-(5-chloro-2-methylphenyl)-2,3′-dioxo-6′-(propan-2-yl)-1,2,3′,5′-tetrahydro-2′H-spiro[indole-3,1′-pyrrolo [3,4-c]pyrrole]-5′-yl]-N-(2-hydroxyethyl)-4-methoxybenzamide]
1.7 | 0.35 | – | COc1ccc(C(N)=O)cc1-n1cc2c(c1C(C)C)[C@@]1(C(=O)Nc3cc(Cl)ccc31)N(c1cc(Cl)ccc1C)C2=O [Compound 110, 3-[(3S)-6-chloro-2′-(5-chloro-2-methylphenyl)-2,3′-dioxo-6′-(propan-2-yl)-1,2,3′,5′-tetrahydro-2′H-spiro[indole-3,1′-pyrrolo[3,4-c]pyrrole]-5′-yl]-4-methoxybenzamide]
